Values of other authors as cited in patent US12220439B2, “Methods of diagnosing and treating dry eye syndrome and compositions for treating a human eye” (Akrivista LLC, priority 2017, dated 2025).

Columns and labels:
[1] = system: HLA-DR; settings: dry eye disease biomarker
[2] = system: corneal cells; settings: concentrations from about 0.004% to about 0.02% (w/v)
[3] = system: Pseudomonas aeruginosa; settings: strains of Pseudomonas aeruginosa

## C[C@@H]1CCN(C(=O)CC#N)C[C@@H]1N(C)c1ncnc2[nH]ccc12 [tofacitinib]
[1]
  HLA-DR presence on treatment: Presence decreased with CsA

## benzalkonium chloride [BAK]
[2]
  effect on corneal epithelium: can lead to corneal epithelial separation
[3]
  effectiveness against potential contaminants: not effective
